Assay results published in patent KR20240040049A, “신규 화합물 및 이를 포함하는 염증성 질환과 암에 대한 진단 및 치료에 사용되는 mri 조영제” (주식회사 테라노큐어, priority 2022, dated 2024).
Converted amounts (≈) assume the structure as drawn. “Also recorded” adds a separate entry of the source.

How the values were obtained:
water solubility at 25℃ = assay type: physicochemical; settings: for solubility: water
[1] = r1 relaxivity of gadolinium complexes; assay type: physicochemical; settings: in words; comparison among compounds
[2] = system: LPS-induced inflamed tissue (LPS로 유발된 염증 조직); test: H&E staining of LPS-induced inflamed tissue; assay type: in vivo
NLRP3 = test: acute hepatitis animal model (LPS and D-galactosamine): NLRP3; assay type: in vivo; settings: Gd-galangin i.v. 0.1 mmol/kg, galangin oral
PARP = test: acute hepatitis animal model (LPS and D-galactosamine): PARP; assay type: in vivo; settings: Gd-galangin i.v. 0.1 mmol/kg, galangin oral

Row | Compound | solubility in water (water solubility at 25℃) [µM] | solubility in water (words) (water solubility at 25℃) | solubility (water solubility at 25℃) [µg/mL] | r1 relaxivity [1] | intercellular spacing / closeness to normal tissue ([2]; Gd-galangin i.v. versus galangin oral) | histological state compared with LPS alone ([2]; Gd-galangin i.v., galangin oral) | effect on NLRP3 (NLRP3) | effect on PARP (PARP)
1 | O=c1cc(-c2ccccc2)oc2cc(O)ccc12 [7-hydroxyflavone, 7-Hydroxyflavone] | 356 (≈ 84.8 µg/mL) | 거의 물에 녹지 않는 불용성 물질; also recorded: Insoluble | 85 (≈ 357 µM) |  |  |  |  | 
2 | O=C([O-])CN1CCN(CC(=O)[O-])CCN(C(CO)C(O)CO)CCN(CC(=O)[O-])CC1.[Gd+3] (stereo not drawn) [Gd-BT-DO3A] |  |  |  | 유사한 값 |  |  |  | 
3 | O=C([O-])CN1CCN(CC(=O)[O-])CCN(CC(=O)O)CCN(CC(=O)[O-])CC1.[Gd+3] [Gd-DOTA] |  |  |  | 유사한 값 |  |  |  | 
4 | O=c1cc(-c2ccccc2)oc2cc(O)cc(O)c12 [chrysin] | 330 (≈ 83.9 µg/mL) | 거의 물에 녹지 않는 불용성 물질; also recorded: Insoluble | 84 (≈ 330 µM) |  |  |  |  | 
5 | O=c1c(O)c(-c2ccccc2)oc2cc(O)cc(O)c12 [galangin, 3,5,7-트리히드록시플라본] | 2117 (≈ 572 µg/mL) | 거의 물에 녹지 않는 불용성 물질; also recorded: Insoluble | 572 (≈ 2120 µM) |  | 전반적으로 더 벌어져 | 더 나은 상태 | 아무런 효과를 보이지 않았으며 | 아무런 효과를 보이지 않았으며
